Patent US9539259B2, “Compounds and methods of use thereof for treating neurodegenerative disorders” (THE JOHNS HOPKINS UNIVERSITY, priority 2012, dated 2017)
Like-named read-outs stand apart in the source and are kept apart here.

What was measured:
DLK = target: T1, DLK (Homo sapiens, UniProt Q12852); conditions: published kinase inhibitor profiles; cited from earlier work
T1 sequence (Q12852 1-859): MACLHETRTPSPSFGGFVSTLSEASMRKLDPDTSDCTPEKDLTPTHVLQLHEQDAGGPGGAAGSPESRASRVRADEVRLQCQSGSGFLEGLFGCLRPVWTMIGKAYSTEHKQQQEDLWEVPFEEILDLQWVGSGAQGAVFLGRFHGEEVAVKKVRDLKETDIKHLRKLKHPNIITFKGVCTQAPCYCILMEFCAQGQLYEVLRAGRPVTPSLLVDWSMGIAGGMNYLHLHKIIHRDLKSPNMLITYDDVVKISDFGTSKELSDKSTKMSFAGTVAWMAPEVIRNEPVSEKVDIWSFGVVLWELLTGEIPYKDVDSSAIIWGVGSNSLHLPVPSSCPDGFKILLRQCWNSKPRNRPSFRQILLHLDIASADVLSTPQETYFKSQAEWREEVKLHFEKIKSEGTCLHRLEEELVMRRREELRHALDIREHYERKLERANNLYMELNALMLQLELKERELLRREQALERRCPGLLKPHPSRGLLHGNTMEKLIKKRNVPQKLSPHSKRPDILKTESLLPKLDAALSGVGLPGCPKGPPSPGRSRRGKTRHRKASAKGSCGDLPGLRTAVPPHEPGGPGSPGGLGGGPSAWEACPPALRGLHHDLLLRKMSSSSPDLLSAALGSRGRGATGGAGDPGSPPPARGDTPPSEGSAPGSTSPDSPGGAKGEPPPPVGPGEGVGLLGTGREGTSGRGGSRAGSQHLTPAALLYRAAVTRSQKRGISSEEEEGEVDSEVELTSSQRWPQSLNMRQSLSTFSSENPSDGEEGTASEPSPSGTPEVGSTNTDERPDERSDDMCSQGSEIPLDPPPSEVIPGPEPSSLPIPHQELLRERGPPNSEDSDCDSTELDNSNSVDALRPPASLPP

primary RGCs = assay: Survival of immunopanned primary RGCs in culture; conditions: for RGC survival / neuroprotective activity in culture: immunopanned RGCs, increasing doses, 72 hours in culture; for neuroprotective activity, RGC survival by CellTiter-Glo luminescence: murine purified RGCs, neurotrophin-depleted media, 72 hours, sunitinib as positive control
Experimental: All animal use was in accordance with ARVO Statement for the Use of Animals, and all the experimental procedures were performed in compliance with animal protocols approved by the IACUC at Johns Hopkins University. Retinas were isolated from postnatal 0-5 day mice and dissociated with papain. Microglia was immunodepleted with anti-CD11b conjugated Dynabeads. The suspension of retinal cells were immunopanned on plates pre-conjugated with anti-Thy1.2 antibody (Serotec, Raleigh, N.C.; MCA028) and goat anti-mouse IgM (Jackson Immunoresearch) at room temperature (RT). After washing, RGCs were released from the plate by a cell lifter, counted, and seeded at a density of 10,000 per well in 96-well plates in the media composed of Neurobasal, B27, N2 supplement, L-glutamine, and penicillin/streptomycin. After a 72 hour culture at 37° C., RGCs were stained with calcein AM, ethidium homodimer, and Hoechst 33342. Images were taken from portions of each well with Cellomics Kinetscan or Cellomics ArrayScan VTI HCS Readers (Thermo Fisher), and cell survival was quantified and calculated with the algorithms in Cellomics Neuroprofiling package. As indicated, RGC viability was alternatively measured by CellTiter-Glo luminescence (Promega, Fitchburg, Wis.).
For siRNA-based screening, the siRNAs from the Sigma Mission Mouse Kinome library were complexed with NeuroMag (Oz Biosciences, Marseille, France) at a final concentration of 20 nM. RGCs were then reverse transfected on a stationary magnet and assayed for survival 72 hours later using CellTiter-Glo (Promega). […] Confirmatory siRNAs were obtained from both Dharmacon (Lafayette, Colo.) and Ambion (Carlsbad, Calif.). Adenovirus expressing wildtype or kinase-dead DLK (Robitaille et al., 2004) was added to RGCs at a multiplicity of infection of 100-1000. For small molecule-based screening, serially diluted compounds in DMSO were transferred to 1536 well assay plates by a 23 nL pintool array (Kalypsys, San Diego, Calif.), with a final concentration of 0.057% DMSO for each respective compound concentration. RGCs were cultured for 48 h, and cell viability was analyzed on a plate reader (ViewLux, Perkin Elmer, Waltham, Mass.) using the bioluminescent CellTiterGlo (Promega, Fitchburg, Wis.) assay. Concentration response curves were created using CurveFit (NIH NCATS). The screened libraries include the modified Tocriscreen (1395 compounds) collection, FDA-approved drugs (2814 compounds), LOPAC (1208 compounds) and PTL2/PTL3 (based on pteridin, pyrimidine and quinazoline scaffolds; 2319 compounds).
In order to identify novel neuroprotective agents, a high-content, high-throughput, phenotypic screen was developed using primary RGCs. RGCs were immunopanned from perinatal mice using an antibody against the RGC surface antigen Thy1 (Barres et al., 1988), arrayed into microtiter (96- to 1536-well) plates, and cell survival in the presence of various bioactive small molecules was assayed 72 hours later.

optic nerve axons = assay: Rat laser-induced ocular hypertension (glaucoma model), optic nerve axon counts; conditions: for reduction of optic nerve axon loss: intravitreal drug-eluting PLGA microspheres, pretreatment, at one month
Experimental: 6-week old male Wistar rats were anesthetized with ketamine/xylazine. A partial periotomy was made to expose the sclera. The injection site was approximately 1 mm posterior to the ora serrata, and the injection glass pipet was angled towards the optic disc in order to avoid lens injury. 5 μL (10 μg) of PLGA microspheres were injected with a glass pipet and Hamilton syringe.
Intraocular pressure (TOP) was unilaterally elevated by laser treatment of the trabecular meshwork as previously described (Levkovitch-Verbin, H. et al., 2002). Briefly, 6-week old Wistar male rats were anesthetized with ketamine/xylazine. On two consecutive weeks, 40-50 532 nm diode laser spots were applied to the prelimbal region (50 μm diameter, 600 mW power and 0.6 seconds duration). Under anesthesia, the IOP of laser-treated and fellow eyes was measured with TonoLab one and three days after laser treatment. Four weeks following laser treatment, rats were perfused with 4% paraformaldehyde in phosphate buffer. Optic nerves were isolated, postfixed with 1% osmium tetroxide, embedded in epoxy resin and stained with 1% toluidine blue. Images from 10 random and nonoverlapping fields were taken with 100× oil phase contrast objective. The area of entire optic nerve cross-sections were imaged with 10× magnification, and used with axon counts from the 10 field to derive axon counts per nerve. The laser treatment and acquisition of optic nerve images were performed in a masked fashion.
Sunitinib, or its vehicle control, were packaged in poly(lactic-co-glycolic acid) (PLGA)-based, slow-eluting microspheres (Edwards, 1997) and injected intravitreally into Wistar rats.

RGCs = assay: Rat optic nerve transection, RGC survival; type: in vivo, Wistar rats
[1] = system: DLK siRNA-transfected RGCs; assay: Survival of RGCs transfected with DLK or control siRNA in the presence of inhibitor; type: cell-based, mouse; conditions: 72 hours after transfection, increasing doses
Experimental: (§1) The shaded area indicates the toxic range for tozasertib; (B) Western blot of the DLK pathway members in RGCs 4 hours after immunopanning in the presence of 0, 0.03, 0.06, 0.125, 0.25, 0.5, 1 or 2 μM tozasertib; (C) survival of cultured RGCs 72 hours after transfection with DLK (dashed) or nontargeting siRNA (solid) in the presence of increasing doses of tozasertib; and (D) survival of cultured RGCs 48 hours after transduction with DLK expressing adenovirus in the presence of increasing doses of tozasertib. Error bars show standard deviation; and
(§2) Concentration response curves were created using CurveFit (NIH NCATS).

RGCs overexpressing DLK = assay: Survival of RGCs transduced with DLK-expressing adenovirus in the presence of inhibitor; type: cell-based, mouse
Experimental: as §1, §2

[2] = system: DLK signaling (phosphorylation of MKK7 and JNK); assay: Western blot of DLK pathway members in RGCs; type: cell-based, mouse; conditions: RGCs 4 hours after immunopanning, concentrations that increase RGC survival
Experimental: as §1
Western blots were performed according to the standard protocol. The following antibodies were from Cell Signaling Technology (Beverly, Mass.): Phospho-JNK, Thr183/Tyr185 (4671); JNK (9258); Phospho-MKK7 (4171), and MKK7 (4172). Monoclonal anti-alpha-tubulin antibody (T6074) was purchased from Sigma (St. Louis, Mo.), βIII tubulin (TUJ1) from Covance, goat polyclonal Brn3 from C-13, and rabbit anti-Cre from Novus. DLK rabbit polyclonal was provided by S. Hirai.

JNK1/2/3 = conditions: published kinase inhibitor profiling; cited from earlier work
MKK4/7 = conditions: published kinase inhibitor profiling; cited from earlier work

SMILES | binding to DLK (DLK) | RGC survival / neuroprotective activity in culture (primary RGCs) | neuroprotective activity, RGC survival by CellTiter-Glo luminescence (primary RGCs) | further results
CCOc1cc2ncc(C#N)c(Nc3ccc(OCc4ccccn4)c(Cl)c3)c2cc1NC(=O)/C=C/CN(C)C [neratinib] | reported to bind DLK |  |  | toxicity in RGC culture (primary RGCs): limited by toxicity at nanomolar doses
CNC(=O)c1ccccc1Sc1ccc2c(/C=C/c3ccccn3)n[nH]c2c1 [axitinib] | reported to bind DLK | promoted the survival of primary RGCs in culture | neuroprotective activity | 
Cc1nc(Nc2ncc(C(=O)Nc3c(C)cccc3Cl)s2)cc(N2CCN(CCO)CC2)n1 [dasatinib] |  |  | neuroprotective activity | 
Clc1ccc(Nc2nnc(Cc3ccncc3)c3ccccc23)cc1 [vatalanib] |  | lack neuroprotective activity |  | 
Cc1ccc(NC(=O)c2ccc(CN3CCN(C)CC3)cc2)cc1Nc1nccc(-c2cccnc2)n1 [imatinib] |  | lack neuroprotective activity |  | 
C[C@@H](Oc1cc(-c2cnn(C3CCNCC3)c2)cnc1N)c1c(Cl)ccc(F)c1Cl [crizotinib] | reported to bind DLK | promoted the survival of primary RGCs in culture | neuroprotective activity | 
O=C(c1ccc(/C=C/c2n[nH]c3ccccc23)cc1)N1CCNCC1 [KW-2449] | reported to bind DLK | promoted the survival of primary RGCs in culture | neuroprotective activity | 
COc1cc(Nc2c(C#N)cnc3cc(OCCCN4CCN(C)CC4)c(OC)cc23)c(Cl)cc1Cl [bosutinib] | reported to bind DLK | promoted the survival of primary RGCs in culture | neuroprotective activity | 
CCN(CC)CCNC(=O)c1c(C)[nH]c(/C=C2\C(=O)Nc3ccc(F)cc32)c1C [sunitinib] |  |  |  | reduction of optic nerve axon loss (optic nerve axons): 40%; increase in surviving RGCs compared to control animals (RGCs; intravitreal PLGA microspheres 7 days before transection, two weeks post-transection): 3-4 fold; toxicity in RGC culture (primary RGCs; primary RGCs in culture): cytotoxicity at high concentrations
CN(C)S(=O)(=O)c1ccc2c(c1)/C(=C/c1cc3c([nH]1)CCCC3)C(=O)N2 [SU6656] |  | neuroprotective |  | 
Cc1cc(Nc2cc(N3CCN(C)CC3)nc(Sc3ccc(NC(=O)C4CC4)cc3)n2)[nH]n1 [tozasertib] | reported to bind DLK | promoted the survival of primary RGCs in culture |  | neuroprotection in glaucoma model (optic nerve axons; intravitreal PLGA microspheres / slow release formulation): protected RGCs; reduction of optic nerve axon loss (optic nerve axons): 39%; effect on survival of DLK siRNA-transfected RGCs [1]: left-shift of the tozasertib-survival dose-response curve; surviving RGCs (RGCs; intravitreal PLGA microspheres 7 days before transection, two weeks after transection, vehicle 12.0%): 32.3%; protection of RGCs in optic nerve transection model (RGCs; intravitreal slow release formulation): protected RGCs; effect on toxicity / survival with adenoviral-overexpressed DLK (RGCs overexpressing DLK): right-shift of the tozasertib-survival dose-response curve; RGC survival / neuroprotective activity in culture (primary RGCs; listed as Tozasertib): significant neuroprotective activity; phosphorylation of targets downstream of DLK, including MKK7 and JNK [2]: decrease in the phosphorylation of targets downstream of DLK; affinity for JNK (JNK1/2/3): does not have significant affinity; affinity for MKK4/7 (MKK4/7): does not have significant affinity
COc1cc2c(Oc3ccc(NC(=O)C4(C(=O)Nc5ccc(F)cc5)CC4)cc3F)ccnc2cc1OCCCN1CCOCC1 [foretinib] | reported to bind DLK | promoted the survival of primary RGCs in culture | neuroprotective activity | 
C[C@]12O[C@H](C[C@]1(O)CO)n1c3ccccc3c3c4c(c5c6ccccc6n2c5c31)CNC4=O [lestautinib, lestaurtinib] |  | promoted the survival of primary RGCs in culture |  | 
COc1cc(N2CCC(N3CCN(C)CC3)CC2)ccc1Nc1ncc(Cl)c(Nc2ccccc2S(=O)(=O)C(C)C)n1 [TAE-684] | reported to bind DLK |  |  | toxicity in RGC culture (primary RGCs): limited by toxicity at nanomolar doses
COc1cc2nccc(Oc3ccc(NC(=O)C4(C(=O)Nc5ccc(F)cc5)CC4)cc3)c2cc1OC [cabozantinib] |  |  | neuroprotective activity | 
CNC(=O)c1cc(Oc2ccc(NC(=O)Nc3ccc(Cl)c(C(F)(F)F)c3)cc2)ccn1 [sorafenib] |  | lack neuroprotective activity |  | 
